In patent publication US11357779B2 (G1 Therapeutics, Inc., priority 2018, dated 2022):
Where two headings read alike, the source gives them in different places.

Assay: Plasma concentration versus time of Compound I and metabolite Compound III in patients dosed QD or BID with Form B of Compound II plus fulvestrant
Format: in vivo, human
Details: human, plasma, oral; for concentration at 22 day: Day 22; for concentration at 24 h: Day 1, […]
From the text: Patients were enrolled into 1 of 2 parallel, independently operating, dose-escalation dosing cohorts with Form B of Compound II administered continuously either once daily (QD) or twice daily (BID) with food with fixed-dose fulvestrant (intramuscularly every 14 days for the first three injections and then every 28 days). Pre- or perimenopausal patients also received goserelin for the duration of study treatment. A […] agonist was started at least 28 days before the first dose of Form B, and those patients who were taking another LHRH agonist were switched to goserelin on Day 1. Patients were split into […] cohorts providing once a day (QD) dosing of 200 mg, 300 mg, 400 mg, 500 mg, or 650 mg of Form B, or twice a day (BID) dosing of 100 mg, 150 mg, or 200 mg of Form B. The second dose in BID cohorts was not administered in the evening until at least 12 hours after the initial morning dose of Form B. The dosing cohorts for Form B of Compound II are provided in Table 1.
Blood samples were collected at the following time points relative to the morning dose of Form B at Day 1 and at Day 29: pre-dose (0 hour) and 1, 2, 3, 4, 6, 8, 10, 12 (prior to the evening dose in the BID cohorts), and 24 (prior to the next day's morning dose) hours after dosing. A 5-minute time window was allowed for samples collected between the predose and 3 hours after Form B dosing. A 15-minute window was allowed for samples collected between 4 to 12 hours after Form B dosing. A 1-hour window was allowed for the sample collected 24 hours after Form B dosing. Blood samples for Compound I PK trough levels were collected pre-dose at Day 8, Day 15, and Day 22 prior to the morning administration of Compound I. Plasma concentrations of Compound I and its metabolite, Compound III, were measured using validated methods.
Analysis of plasma concentration versus time data for calculation of standard pharmacokinetic (PK) parameters following oral administration was conducted using Phoenix WinNonlin version 6.3 using actual blood sampling times.

CC(C)N1CCN(c2ccc(Nc3ncc4cc5n(c4n3)C3(CCCCC3)CNC5=O)nc2)CC1 [Compound I, 2′-((5-(4-isopropylpiperazin-1-yl)pyridin-2-yl)amino)-7′,8′-dihydro-6′H-spiro[cyclohexane-1,9′-pyrazino[1′,2′:1,5]pyrrolo[2,3-d]pyrimidin]-6′-one]
concentration at 15 day (150 mg, Cohort 7, 150 mg BID of Form B, Day 15, read-out: Trough Compound I Concentration, Min): 0.0155 µg/mL
concentration at 22 day (150 mg, Cohort 7, 150 mg BID of Form B, read-out: Trough Compound I Concentration, Max): 0.0305 µg/mL
concentration at 22 day (150 mg, Cohort 7, 150 mg BID of Form B, read-out: Trough Compound I Concentration, Median): 0.0159 µg/mL
concentration at 22 day (150 mg, Cohort 7, 150 mg BID of Form B, read-out: Trough Compound I Concentration, Min): 0.0155 µg/mL
concentration at 0 h (150 mg, Cohort 7, 150 mg BID of Form B, Day 29, 0.0 h, read-out: Compound I Concentration, Max): 0.0511 µg/mL
concentration at 0 h (150 mg, Cohort 7, 150 mg BID of Form B, Day 29, 0.0 h, read-out: Compound I Concentration, Median): 0.0185 µg/mL
concentration at 1 h (150 mg, Cohort 7, 150 mg BID of Form B, Day 29, 1.0 h, read-out: Compound I Concentration, Median): 0.0287 µg/mL
concentration at 2 h (150 mg, Cohort 7, 150 mg BID of Form B, Day 29, 2.0 h, read-out: Compound I Concentration, Median): 0.0343 µg/mL
concentration at 3 h (150 mg, Cohort 7, 150 mg BID of Form B, Day 29, 3.0 h, read-out: Compound I Concentration, Median): 0.0356 µg/mL
concentration at 4 h (150 mg, Cohort 7, 150 mg BID of Form B, Day 29, 4.0 h, read-out: Compound I Concentration, Median): 0.0369 µg/mL
concentration at 6 h (150 mg, Cohort 7, 150 mg BID of Form B, Day 29, 6.0 h, read-out: Compound I Concentration, Median): 0.0265 µg/mL
concentration at 8 h (150 mg, Cohort 7, 150 mg BID of Form B, Day 29, 8.0 h, read-out: Compound I Concentration, Median): 0.0269 µg/mL
concentration at 10 h (150 mg, Cohort 7, 150 mg BID of Form B, Day 29, 10.0 h, read-out: Compound I Concentration, Median): 0.0238 µg/mL
concentration at 12 h (150 mg, Cohort 7, 150 mg BID of Form B, Day 29, 12.0 h, read-out: Compound I Concentration, Median): 0.0173 µg/mL
concentration at 0 h (200 mg, 200 mg BID of Form B, Day 1, 0.0 h, Mean, read-out: Compound I Concentration): 0 µg/mL
concentration at 0 h (200 mg, 200 mg BID of Form B, Day 1, 0.0 h, Median, read-out: Compound I Concentration): 0 µg/mL
concentration at 1 h (200 mg, 200 mg BID of Form B, Day 1, 1.0 h, Mean, read-out: Compound I Concentration): 0.00579 µg/mL
concentration at 1 h (200 mg, 200 mg BID of Form B, Day 1, 1.0 h, Median, read-out: Compound I Concentration): 0.00613 µg/mL
concentration at 2 h (200 mg, 200 mg BID of Form B, Day 1, 2.0 h, Mean, read-out: Compound I Concentration): 0.00942 µg/mL
concentration at 2 h (200 mg, 200 mg BID of Form B, Day 1, 2.0 h, Median, read-out: Compound I Concentration): 0.0118 µg/mL
concentration at 3 h (200 mg, 200 mg BID of Form B, Day 1, 3.0 h, Mean, read-out: Compound I Concentration): 0.0128 µg/mL
concentration at 3 h (200 mg, 200 mg BID of Form B, Day 1, 3.0 h, Median, read-out: Compound I Concentration): 0.0148 µg/mL
concentration at 4 h (200 mg, 200 mg BID of Form B, Day 1, 4.0 h, Mean, read-out: Compound I Concentration): 0.0155 µg/mL
concentration at 4 h (200 mg, 200 mg BID of Form B, Day 1, 4.0 h, Median, read-out: Compound I Concentration): 0.0149 µg/mL
concentration at 6 h (200 mg, 200 mg BID of Form B, Day 1, 6.0 h, Mean, read-out: Compound I Concentration): 0.0155 µg/mL
concentration at 6 h (200 mg, 200 mg BID of Form B, Day 1, 6.0 h, Median, read-out: Compound I Concentration): 0.0171 µg/mL
concentration at 8 h (200 mg, 200 mg BID of Form B, Day 1, 8.0 h, Mean, read-out: Compound I Concentration): 0.00894 µg/mL
concentration at 8 h (200 mg, 200 mg BID of Form B, Day 1, 8.0 h, Median, read-out: Compound I Concentration): 0.00913 µg/mL
concentration at 10 h (200 mg, 200 mg BID of Form B, Day 1, 10.0 h, Mean, read-out: Compound I Concentration): 0.00661 µg/mL
concentration at 10 h (200 mg, 200 mg BID of Form B, Day 1, 10.0 h, Median, read-out: Compound I Concentration): 0.00633 µg/mL
concentration at 12 h (200 mg, 200 mg BID of Form B, Day 1, 12.0 h, Mean, read-out: Compound I Concentration): 0.00564 µg/mL
concentration at 12 h (200 mg, 200 mg BID of Form B, Day 1, 12.0 h, Median, read-out: Compound I Concentration): 0.00489 µg/mL
concentration at 0 h (200 mg, 200 mg QD of Form B, Day 1, 0.0 h, Mean, read-out: Compound I Concentration): 0 µg/mL
concentration at 0 h (200 mg, 200 mg QD of Form B, Day 1, 0.0 h, Median, read-out: Compound I Concentration): 0 µg/mL
concentration at 1 h (200 mg, 200 mg QD of Form B, Day 1, 1.0 h, Mean, read-out: Compound I Concentration): 0.00842 µg/mL
concentration at 1 h (200 mg, 200 mg QD of Form B, Day 1, 1.0 h, Median, read-out: Compound I Concentration): 0.00365 µg/mL
concentration at 2 h (200 mg, 200 mg QD of Form B, Day 1, 2.0 h, Mean, read-out: Compound I Concentration): 0.0136 µg/mL
concentration at 2 h (200 mg, 200 mg QD of Form B, Day 1, 2.0 h, Median, read-out: Compound I Concentration): 0.0123 µg/mL
concentration at 3 h (200 mg, 200 mg QD of Form B, Day 1, 3.0 h, Mean, read-out: Compound I Concentration): 0.0202 µg/mL
concentration at 3 h (200 mg, 200 mg QD of Form B, Day 1, 3.0 h, Median, read-out: Compound I Concentration): 0.0181 µg/mL
concentration at 4 h (200 mg, 200 mg QD of Form B, Day 1, 4.0 h, Mean, read-out: Compound I Concentration): 0.025 µg/mL
concentration at 4 h (200 mg, 200 mg QD of Form B, Day 1, 4.0 h, Median, read-out: Compound I Concentration): 0.027 µg/mL
concentration at 6 h (200 mg, 200 mg QD of Form B, Day 1, 6.0 h, Mean, read-out: Compound I Concentration): 0.0168 µg/mL
concentration at 6 h (200 mg, 200 mg QD of Form B, Day 1, 6.0 h, Median, read-out: Compound I Concentration): 0.0177 µg/mL
concentration at 8 h (200 mg, 200 mg QD of Form B, Day 1, 8.0 h, Mean, read-out: Compound I Concentration): 0.0116 µg/mL
concentration at 8 h (200 mg, 200 mg QD of Form B, Day 1, 8.0 h, Median, read-out: Compound I Concentration): 0.0122 µg/mL
concentration at 10 h (200 mg, 200 mg QD of Form B, Day 1, 10.0 h, Mean, read-out: Compound I Concentration): 0.00828 µg/mL
concentration at 10 h (200 mg, 200 mg QD of Form B, Day 1, 10.0 h, Median, read-out: Compound I Concentration): 0.00913 µg/mL
concentration at 12 h (200 mg, 200 mg QD of Form B, Day 1, 12.0 h, Mean, read-out: Compound I Concentration): 0.00629 µg/mL
concentration at 12 h (200 mg, 200 mg QD of Form B, Day 1, 12.0 h, Median, read-out: Compound I Concentration): 0.00643 µg/mL
concentration at 24 h (200 mg, 200 mg QD of Form B, Mean, read-out: Compound I Concentration): 0.00361 µg/mL
concentration at 24 h (200 mg, 200 mg QD of Form B, Median, read-out: Compound I Concentration): 0.00324 µg/mL
concentration at 0 h (200 mg, 200 mg QD of Form B, Day 29, 0.0 h, Mean, read-out: Compound I Concentration): 0.00405 µg/mL
concentration at 0 h (200 mg, 200 mg QD of Form B, Day 29, 0.0 h, Median, read-out: Compound I Concentration): 0.0041 µg/mL
concentration at 1 h (200 mg, 200 mg QD of Form B, Day 29, 1.0 h, Mean, read-out: Compound I Concentration): 0.00512 µg/mL
concentration at 1 h (200 mg, 200 mg QD of Form B, Day 29, 1.0 h, Median, read-out: Compound I Concentration): 0.00535 µg/mL
concentration at 2 h (200 mg, 200 mg QD of Form B, Day 29, 2.0 h, Mean, read-out: Compound I Concentration): 0.00692 µg/mL
concentration at 2 h (200 mg, 200 mg QD of Form B, Day 29, 2.0 h, Median, read-out: Compound I Concentration): 0.00727 µg/mL
concentration at 3 h (200 mg, 200 mg QD of Form B, Day 29, 3.0 h, Mean, read-out: Compound I Concentration): 0.0125 µg/mL
